Source: patent publication US20220378923A1, “BET DEGRADER” (KYOWA KIRIN CO., LTD., priority 2019, published 2022)
Like-named read-outs stand apart in the source and are kept apart here.

Tests used:
SU-DHL-4 cells = experiment: Inhibitory effect on cell viability in SU-DHL-4 cell line (Test Example 1); format: cell-based, human; settings: 72 hours; for IC50: SU-DHL-4 (wild type) cells, calculated using the measurement results of test example 1, read-out: SU-DHL-4 WT IC50; for IC90: SU-DHL-4 cells, Cell Counting Kit-8, concentration showing 90% inhibition of cell viability, read-out: SU-DHL-4 Cell Viability Inhibition Rate IC90
In short: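 SU-DHL-4 cells were grown at 37° C. under 5% CO2 in RPMI1640 with 10 vol % heat-inactivated FBS plus penicillin/streptomycin, seeded and precultured for 18 to 25 hours, then exposed to test compound at 0.1 vol % DMSO for 72 hours. Viability was read with Cell Counting Kit-8 by absorbance at 450 nm.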

DCAF16 KO SU-DHL-4 cells = experiment: Inhibitory effect on cell viability using SU-DHL-4 DCAF16 knock out (KO) cell line (Test Example 6); format: cell-based, human; settings: for Activity Attenuation Ratio: (SU-DHL-4 DCAF16 KO IC50)/(SU-DHL-4 WT IC50); for IC50: DCAF16 KO SU-DHL-4 cells, 72 hours, Cell Counting Kit-8, 50% inhibition of cell viability
Protocol: The human DLBCL cell line SU-DHL-4 was purchased from DSMZ. SU-DHL-4 was passaged using RPMI1640 medium containing 10 vol % FBS. After the Cas9 gene was introduced, the cells were cultured in the above medium containing 0.01 mg/mL blasticidin (InvivoGen, Cat No. ant-bl-1). After introduction of sgRNA, the cells were cultured in the above medium containing 0.0001 mg/mL puromycin dihydrochloride (SIGMA, Cat No. P9020-10 ML). The culture conditions were 37° C. and 5% CO2.
Edit-R Lentiviral hEF1α-Blast-Cas9 Nuclease Particles (Cat No. VCAS10126) was used as a lentivirus for expressing Cas9 in human cell lines. Three types of Edit-R Human DCAF16 Lentiviral sgRNA (Cat No. VSGH10142-246568260; DNA target sequence […] (SEQ ID NO: 1), Cat No. VSGH10142-246568262; DNA target sequence […] (SEQ ID NO: 2) and Cat No. VSGH10142-246568263; DNA target sequence […] (SEQ ID NO: 3)) were used as lentiviruses for introducing DCAF16 sgRNA. As a control, Edit-R Lentiviral sgRNA Non-targeting Control #1 (Cat No. VSGC10215) was used. All lentiviruses were purchased from Dharmacon and stored at −80° C. until use.
SU-DHL-4 was suspended at 4×10^5 cells/mL in RPMI 1640 without FBS, 0.25 mL of the suspension was added to a 24-well plate, and the cells were cultured overnight. The next day, 0.003 mL of virus particles of Edit-R Lentiviral hEF1α-Blast-Cas9 Nuclease Particles was added. After culturing in a CO2 incubator for 4 hours, RPMI 1640 containing 0.75 mL of 10 vol % FBS was added. After culturing in a CO2 incubator for about 48 hours, the medium was replaced with RPMI1640 containing 10 vol % FBS, and the cells were cultured in a CO2 incubator. Four days after infection, the medium was replaced with a medium containing 0.01 mg/mL blasticidin (InvivoGen, Cat No. ant-bl-1). Then, the cells were passaged once every 2 to 3 days and thus twice in total (that is, cultured for 1 week) to obtain SU-DHL-4/Cas9, which is a Cas9-introduced SU-DHL-4 cell line.
(6) sgRNA infection SU-DHL-4/Cas9 was suspended at 4×10^5 cells/mL in RPMI 1640 without FBS, 0.25 mL of the suspension was added to a 24-well plate, and the cells were cultured overnight. The next day, a total of 4 types of sgRNA virus particles, 1 type of Control and 3 types targeting DCAF16 were added to the respective wells by 0.03 mL. After culturing in a CO2 incubator for 5 hours, RPMI 1640 containing 0.75 mL of 10 vol % FBS was added.
After culturing in a CO2 incubator for about 48 hours, the medium was replaced with RPMI1640 containing 10 vol % FBS, and the cells were cultured in a CO2 incubator. Four days after infection, the medium was replaced with a medium supplemented with 0.01 mg/mL puromycin dihydrochloride (SIGMA, Cat No. P9020-10 ML). Then, the cells were passaged once or twice a week for 2 weeks, and a cell stock was prepared using CELLBANKER I plus (Takara Bio, Cat No. CB-021). Cell line stock was stored at −80° C. Using Edit-R Lentiviral sgRNA Non-targeting Control #1, the Negative Control sequence was introduced into the SU-DHL-4 cell line, which was referred to as SU-DHL-4 NC strain, and using Edit-R Human DCAF16 Lentiviral sgRNA, […] sequence (SEQ ID NO: 1) was introduced into the SU-DHL-4 cell line, which was referred to as SU-DHL-4 DCAF16 KO1 strain, […] sequence (SEQ ID NO: 2) was introduced into the SU-DHL-4 cell line, which was referred to as SU-DHL-4 DCAF16 KO2 strain, and […] sequence (SEQ ID NO: 3) was introduced into the SU-DHL-4 cell line, which was referred to as SU-DHL-4 DCAF16 KO 3 strain.
The cultured DCAF16 KO SU-DHL-4 cells were seeded at 2000 cells/well in a transparent 384-well plate (Code No. 781182, Greiner bio-one). After seeding, the cells were pre-cultured at 37° C. in a carbon dioxide gas incubator for 18 to 25 hours. […]

| SMILES | IC50 (SU-DHL-4 cells; Homo sapiens) | IC50 (DCAF16 KO SU-DHL-4 cells; Homo sapiens) | IC50 (SU-DHL-4 cells) | IC90 (SU-DHL-4 cells) | IC50 (DCAF16 KO SU-DHL-4 cells) | Activity Attenuation Ratio (DCAF16 KO SU-DHL-4 cells) |
| --- | --- | --- | --- | --- | --- | --- |
| CCC(=O)N1c2ccccc2[C@H](Nc2ccc(C(=O)NCCCNC(=O)c3ccc(N[C@@H]4C[C@H](C)N(C(=O)CC)c5ccccc54)cc3)cc2)C[C@@H]1C (relative stereo) [Compound 1a, N,N′-(Propane-1,3-diyl)bis(4-{[(2S*,4R*)-2-methyl-1-propionyl-1,2,3,4-tetrahydroquinolin-4-yl]amino}benzamide)] | 1.13 nM | 68.7 nM |  |  |  | 61 |
| CCC(=O)N1c2ccccc2[C@H](Nc2ccc(C(=O)NC3CCN(C(=O)c4ccc(N[C@@H]5C[C@H](C)N(C(=O)CC)c6ccccc65)cc4)CC3)cc2)C[C@@H]1C (relative stereo) [Compound 1c, 4-{[(2S*,4R*)-2-Methyl-1-propionyl-1,2,3,4-tetrahydroquinolin-4-yl]amino}-N-[1-(4-{[(2S*,4R*)-2-methyl-1-propionyl-1,2,3,4-tetrahydroquinolin-4-yl]amino}benzoyl)piperidin-4-yl]benzamide] | 2.93 nM | 385 nM |  |  |  | 131 |
| CCC(=O)N1c2ccccc2[C@H](Nc2ccc(NC(=O)C3CN(C(=O)c4ccc(N[C@@H]5C[C@H](C)N(C(=O)CC)c6ccccc65)cc4)C3)cc2)C[C@@H]1C (relative stereo) [Compound 2h, 1-(4-{[(2S,4R)-2-Methyl-1-propionyl-1,2,3,4-tetrahydroquinolin-4-yl]amino}benzoyl)-N-(4-{[(2S*,4R*)-2-methyl-1-propionyl-1,2,3,4-tetrahydroquinolin-4-yl]amino}phenyl)azetidine-3-carboxamide] | 0.03 nM | 12.2 nM |  |  |  | 408 |
| CCC(=O)N1c2ccccc2[C@H](Nc2ccc(NC(=O)N3CCN(C(=O)c4ccc(N[C@@H]5C[C@H](C)N(C(=O)CC)c6ccccc65)cc4)CC3)cc2)C[C@@H]1C (relative stereo) [Compound 6m, 4-(4-(((2S,4R)-2-Methyl-1-propionyl-1,2,3,4-tetrahydroquinolin-4-yl)amino)benzoyl)-N-(4-(((2S*,4R*)-2-methyl-1-propionyl-1,2,3,4-tetrahydroquinolin-4-yl)amino)phenyl)piperazine-1-carboxamide] | 0.08 nM | 90.3 nM |  |  |  | 1164 |
| CCC(=O)N1c2ccccc2[C@H](Nc2ccc(NC(=O)C#CCNC(=O)C3CCC(N[C@@H]4C[C@H](C)N(C(=O)CC)c5ccccc54)CC3)cc2)C[C@@H]1C (relative stereo) [Compound 8g, (1R,4r)-4-(((2S*,4R*)-2-Methyl-1-propionyl-1,2,3,4-tetrahydroquinolin-4-yl)amino)-N-(4-((4-(((2S,4R)-2-methyl-1-propionyl-1,2,3,4-tetrahydroquinolin-4-yl)amino)phenyl)amino)-4-oxobut-2-yn-1-yl)cyclohexane-1-carboxamide] |  |  | 0.008 nM | 0.01 nM | 26 nM | 3174 |
| CCC(=O)N1c2ccccc2[C@H](Nc2ccc(C(=O)NCCCNC(=O)c3ccc(C4=N[C@@H](CC(=O)OC(C)(C)C)c5nnc(C)n5-c5sc(C)c(C)c54)cc3)cc2)C[C@@H]1C [Compound 1h, tert-Butyl 2-[(S)-2,3,9-trimethyl-4-(4-{[3-(4-{[(2S,4R)-2-methyl-1-propionyl-1,2,3,4-tetrahydroquinolin-4-yl]amino}benzamide)propyl]carbamoyl}phenyl)-6H-thieno[3,2-f][1,2,4]triazolo[4,3-a][1,4]diazepin-6-yl]acetate] |  |  |  | 0.27 nM |  |  |
| Cc1sc2c(c1C)C(c1ccc(C(=O)NCc3cn(-c4ccc(C5=N[C@@H](CC(=O)OC(C)(C)C)c6nnc(C)n6-c6sc(C)c(C)c65)cc4)nn3)cc1)=N[C@@H](CC(=O)OC(C)(C)C)c1nnc(C)n1-2 [Compound 3b, tert-Butyl 2-[(S)-4-(4-{4-[(4-{(S)-6-[2-(tert-butoxy)-2-oxoethyl]-2,3,9-trimethyl-6H-thieno[3,2-f][1,2,4]triazolo[4,3-a][1,4]diazepin-4-yl}benzamide)methyl]-1H-1,2,3-triazol-1-yl}phenyl)-2,3,9-trimethyl-6H-thieno[3,2-f][1,2,4]triazolo[4,3-a][1,4]diazepin-6-yl]acetate] |  |  |  | 0.18 nM |  |  |
| CCC(=O)N1c2ccccc2[C@H](Nc2ccc(NC(=O)CCCC(=O)Nc3ccc(N[C@@H]4C[C@H](C)N(C(=O)CC)c5ccccc54)cc3)cc2)C[C@@H]1C [Compound 6k, N^1,N^5-Bis(4-(((2S,4R)-2-methyl-1-propionyl-1,2,3,4-tetrahydroquinolin-4-yl)amino)phenyl)glutaramide] |  | 31.2 nM |  |  |  | 520 |

Continued, in another order:

| IC50 (SU-DHL-4 cells; Homo sapiens) | IC50 (DCAF16 KO SU-DHL-4 cells; Homo sapiens) | IC50 (SU-DHL-4 cells) | IC90 (SU-DHL-4 cells) | IC50 (DCAF16 KO SU-DHL-4 cells) | SMILES | Activity Attenuation Ratio (DCAF16 KO SU-DHL-4 cells) |
| --- | --- | --- | --- | --- | --- | --- |
| 0.09 nM | 100 nM |  |  |  | CCC(=O)N1c2ccccc2[C@H](Nc2ccc(NC(=O)CCNC(=O)c3ccc(N[C@@H]4C[C@H](C)N(C(=O)CC)c5ccccc54)cc3)cc2)C[C@@H]1C (relative stereo) [Compound 2f, 4-{[(2S,4R)-2-Methyl-1-propionyl-1,2,3,4-tetrahydroquinolin-4-yl]amino}-N-{3-[(4-{[(2S*,4R*)-2-methyl-1-propionyl-1,2,3,4-tetrahydroquinolin-4-yl]amino}phenyl)amino]-3-oxopropyl}benzamide] | 1111 |
| 0.3 nM | 75 nM |  |  |  | CCC(=O)N1c2ccccc2[C@H](Nc2ccc(NC(=O)CCSc3ccc(N[C@@H]4C[C@H](C)N(C(=O)CC)c5ccccc54)cc3)cc2)C[C@@H]1C (relative stereo) [Compound 4e, N-(4-{[(2S*,4R*)-2-Methyl-1-propionyl-1,2,3,4-tetrahydroquinolin-4-yl]amino}phenyl)-3-[(4-{[(2S,4R)-2-methyl-1-propionyl-1,2,3,4-tetrahydroquinolin-4-yl]amino}phenyl)thio]propanamide] | 250 |
|  |  |  | 0.87 nM |  | CCC(=O)N1c2ccccc2[C@H](Nc2ccc(-n3cc(CCNC(=O)[C@H]4CC[C@H](N[C@@H]5C[C@H](C)N(C(=O)CC)c6ccccc65)CC4)nn3)cc2)C[C@@H]1C [Compound 8a, (1R,4r)-4-(((2S,4R)-2-Methyl-1-propionyl-1,2,3,4-tetrahydroquinolin-4-yl)amino)-N-(2-(1-(4-(((2S,4R)-2-methyl-1-propionyl-1,2,3,4-tetrahydroquinolin-4-yl)amino)phenyl)-1H-1,2,3-triazol-4-yl)ethyl)cyclohexane-1-carboxamide] |  |
